Patent US9409864B2, “Sulfonamide TRPA1 receptor antagonists” (ARIO PHARMA LIMITED, priority 2013, dated 2016)
Where two headings read alike, the source gives them in different places.

Legend:
[1] = target: T1, native human TRPA1 receptors (Homo sapiens, UniProt O75762); assay: PF-4840154 (1 μM)-induced Ca2+ fluorescence measurements in A549 cell line; assay type: cell-based; settings: for inhibition at 10 µM: 10 μM compound against 1 μM PF-4840154, A549 cells; for IC50: against PF-4840154 (1 μM)-evoked [Ca2+]i mobilization, A549 cells
T1 construct: stably expressing native human TRPA1 receptors were used; endogenous in cells; host or cells: A549 human lung adenocarcinoma epithelial cell line
Outline: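 A549 cells stably expressing native human TRPA1, Fluo-4 AM loaded; fluorescence Ca2+ read in HBSS with probenecid and Brilliant Black at 36.5 °C. Compounds tested alone for agonism and against 1 μM PF-4840154 for inhibition at initial 10 μM; IC50 from full concentration-response curves for selected compounds.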

[2] = target: T2, TRPA1 (cultured rat dorsal root ganglia neurons) (Rattus norvegicus, UniProt Q6RI86); assay: PF-4840154 (10 μM)-induced Ca2+ fluorescence measurements in cultured rat dorsal root ganglia neurons; assay type: cell-based; settings: against 10 μM PF-4840154-induced [Ca2+]i mobilization, primary culture of rat dorsal ganglia neurons
T2 construct: calcium assay data obtained in primary culture of rat dorsal ganglia neurons; from tissue; host or cells: primary culture of dorsal root ganglia neurons from male SD rats
Method: PF-4840154 (10 μM)-Induced Ca^2+ Fluorescence Measurements in Cultured Rat Dorsal Root Ganglia Neurons
Male SD rats (˜50 g, Charles River, Italy) were terminally anaesthetized and decapitated. Dorsal root ganglia were removed and placed in cold Hank's balanced salt solution (HBSS) before being transferred to collagenase (2 mg/ml) and trypsin (1 mg/ml) for 35 min at 37° C. The ganglia, placed in cold DMEM supplemented with 10% fetal bovine serum, 10% horse serum, 2 mM L-glutamine, 100 U/ml penicillin and 100 μg/ml streptomycin, were dissociated in single cells by several passages through a series of syringe needles (23G down to 25G). The medium and the ganglia were filtered to remove debris, topped up with 4 ml of DMEM medium and centrifuged (1100 rpm for 6 min). The final cell pellet was re-suspended in DMEM medium [supplemented with 100 ng/ml mouse Nerve Growth Factor (mouse-NGF-7S) and cytosine-β-D-arabinofuranoside free base (ARA-C) 2.5 μM]. The cells were plated on poly-L-lysine (8.3 μM)- and laminin (5 μM)-coated 25 mm glass cover slips and kept for 2 days at 37° C. in a humidified incubator gassed with 5% CO2 and air, then treated with Fura-2-AM-ester (5 μM) in a Ca^2+ buffer solution having the following composition (mM): CaCl2 1.4, KCl 5.4, MgSO4 0.4, NaCl 135, D-glucose 5, HEPES 10 with BSA (0.1%), at pH 7.4, for 40 min at 37° C. The cells were then washed twice with the Ca^2+ buffer solution and transferred to a chamber on the stage of a Nikon eclipse TE300 microscope. Fura-2-AM-ester was excited at […] to indicate relative [Ca^2+]i changes by the F340/F380 ratio recorded with a dynamic image analysis system (Laboratory Automation 2.0, RCS, Florence, Italy) and the cells were allowed (at least 10 min) to attain a stable fluorescence before beginning the experiment. A calibration curve was set up using buffer containing Fura-2-AM-ester and determinant concentrations of free Ca^2+. This curve was then used to convert the data obtained from the F340/F380 ratio to [Ca^2+]i (nM).
All exemplified compounds were tested at the concentration of 10 μM against the calcium uptake induced by 10 μM PF-4840154. For selected examples, the entire concentration response curves were constructed and the respective IC50 value calculated.

[3] = test system: PF-4840154-induced mechanical hyperalgesia in rats; assay: Agonist (PF-4840154)-induced mechanical hyperalgesia in rats; assay type: in vivo; settings: Rattus norvegicus, 30 μmol/kg oral, PF-4840154 0.05 nmol/50 μl/paw intraplantar
Text: Agonist (PF-4840154)-Induced Mechanical Hyperalgesia in Rats
The method is used to investigate the anti-hyperalgesic effects of the compounds listed in the present invention following agonist (PF-4840154)-induced hyperalgesic responses. The activity is indicative of TRPA1 receptor occupancy following oral dosing. Specifically, male SD rats (Charles River, Italy) weighing 70-100 g. were used. The anti-hyperalgesic effects were investigated using the electronic dynamometer test. PF-4840154 (Sigma, USA) was used to induce mechanical hyperalgesia. Local, intraplantar injection of PF-4840154 at 0.05 nmol/50 μl/paw caused the reduction of the hind paw withdrawal response induced by mechanical stimuli. Mechanical stimulation was induced in basal condition and 30, 60, 120, 180 and 240 minutes after the oral administration of the antagonists dissolved in 2.5% DMSO and 30% Solutol. Compounds were orally administered (30 μmol/kg/10 ml) to rats 1 hour before the injection of PF-4840154 into the plantar surface of a rat's hind using a micro syringe.

[4] = test system: oxaliplatin-induced mechanical hyperalgesia in rats; assay: Oxaliplatin-induced mechanical hyperalgesia in rats; assay type: in vivo; settings: Rattus norvegicus, 168 h, 30 μmol/kg oral, 7 days post i.v. oxaliplatin 2.5 mg/kg
Method: Oxaliplatin-Induced Mechanical Hyperalgesia in Rats
The method described by Nassini et al. (Pain, 2011, 152(7), 1621-31) was used with minor modifications. Restrained rats were treated with a single intravenous bolus injection of oxaliplatin (2.5 mg/kg) dissolved in normal saline. This approach was sufficient to elicit reproducible allodynic behaviour evident 3 days post injection and during the day thereafter. For convenience all acute experiments were conducted 7 days post injection when compounds were orally administered at 30 μmol/kg.

[5] = read-out: % of reversal of mechanical allodynia
[6] = read-out: Maximal inhibition (%)

T1 sequence (O75762 whole entry): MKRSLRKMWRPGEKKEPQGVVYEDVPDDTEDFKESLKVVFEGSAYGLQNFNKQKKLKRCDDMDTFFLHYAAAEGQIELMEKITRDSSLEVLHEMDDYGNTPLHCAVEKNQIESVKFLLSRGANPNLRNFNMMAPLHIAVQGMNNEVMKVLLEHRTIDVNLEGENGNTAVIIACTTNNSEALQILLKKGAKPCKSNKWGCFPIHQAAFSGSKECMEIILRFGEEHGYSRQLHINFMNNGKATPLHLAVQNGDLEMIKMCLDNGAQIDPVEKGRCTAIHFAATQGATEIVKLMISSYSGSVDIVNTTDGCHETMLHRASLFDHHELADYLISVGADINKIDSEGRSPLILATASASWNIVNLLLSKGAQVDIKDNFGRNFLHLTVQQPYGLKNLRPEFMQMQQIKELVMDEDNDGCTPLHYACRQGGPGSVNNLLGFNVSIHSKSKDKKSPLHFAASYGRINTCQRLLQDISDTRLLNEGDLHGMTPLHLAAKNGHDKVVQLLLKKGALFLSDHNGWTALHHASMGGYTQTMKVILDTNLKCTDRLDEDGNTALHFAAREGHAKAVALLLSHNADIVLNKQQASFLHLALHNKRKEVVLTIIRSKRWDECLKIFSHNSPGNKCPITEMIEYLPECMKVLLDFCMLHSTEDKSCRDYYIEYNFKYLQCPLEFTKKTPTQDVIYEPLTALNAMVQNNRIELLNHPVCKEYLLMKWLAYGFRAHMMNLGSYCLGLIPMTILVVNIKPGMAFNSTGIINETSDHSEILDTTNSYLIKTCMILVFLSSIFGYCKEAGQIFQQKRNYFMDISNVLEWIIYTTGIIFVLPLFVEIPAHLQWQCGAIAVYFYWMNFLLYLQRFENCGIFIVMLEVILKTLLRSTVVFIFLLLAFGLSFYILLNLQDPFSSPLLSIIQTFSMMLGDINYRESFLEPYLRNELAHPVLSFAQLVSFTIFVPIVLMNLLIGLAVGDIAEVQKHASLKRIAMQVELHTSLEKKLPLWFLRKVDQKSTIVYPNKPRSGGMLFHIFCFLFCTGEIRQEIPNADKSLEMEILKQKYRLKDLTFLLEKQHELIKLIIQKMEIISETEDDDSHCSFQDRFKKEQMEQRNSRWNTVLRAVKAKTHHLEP
T2 sequence (Q6RI86 whole entry): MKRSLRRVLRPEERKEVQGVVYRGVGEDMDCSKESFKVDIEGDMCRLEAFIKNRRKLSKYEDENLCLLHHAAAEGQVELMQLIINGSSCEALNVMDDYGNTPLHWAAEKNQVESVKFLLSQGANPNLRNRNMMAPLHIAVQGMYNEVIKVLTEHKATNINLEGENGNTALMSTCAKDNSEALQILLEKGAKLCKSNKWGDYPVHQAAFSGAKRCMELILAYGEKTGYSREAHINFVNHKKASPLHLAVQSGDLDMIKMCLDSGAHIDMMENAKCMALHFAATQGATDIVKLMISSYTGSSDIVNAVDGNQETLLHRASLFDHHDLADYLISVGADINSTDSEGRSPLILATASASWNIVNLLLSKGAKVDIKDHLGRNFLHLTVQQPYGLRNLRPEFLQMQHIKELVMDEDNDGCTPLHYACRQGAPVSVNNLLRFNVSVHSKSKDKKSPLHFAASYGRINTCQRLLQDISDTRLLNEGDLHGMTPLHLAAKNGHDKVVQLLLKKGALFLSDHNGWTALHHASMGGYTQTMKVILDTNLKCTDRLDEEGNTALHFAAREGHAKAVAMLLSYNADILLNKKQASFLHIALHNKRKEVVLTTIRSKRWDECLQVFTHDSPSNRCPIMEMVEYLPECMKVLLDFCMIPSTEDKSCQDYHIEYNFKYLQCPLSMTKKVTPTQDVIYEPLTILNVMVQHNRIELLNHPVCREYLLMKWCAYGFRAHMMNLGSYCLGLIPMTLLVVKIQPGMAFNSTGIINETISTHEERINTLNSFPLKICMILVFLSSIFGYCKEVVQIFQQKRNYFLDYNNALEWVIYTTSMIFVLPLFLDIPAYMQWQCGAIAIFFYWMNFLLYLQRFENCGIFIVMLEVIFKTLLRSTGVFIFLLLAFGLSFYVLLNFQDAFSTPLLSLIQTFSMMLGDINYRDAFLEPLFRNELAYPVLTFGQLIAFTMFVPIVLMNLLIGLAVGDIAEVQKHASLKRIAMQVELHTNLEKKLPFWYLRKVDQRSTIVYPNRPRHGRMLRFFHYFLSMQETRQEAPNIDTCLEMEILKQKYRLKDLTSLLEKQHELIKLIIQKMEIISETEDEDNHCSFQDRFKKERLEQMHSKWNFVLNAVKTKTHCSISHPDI

SMILES | inhibition at 10 µM [1] | IC50 [1] | IC50 [2] | inhibition in vivo at 30 µmol/kg [3, 5] | inhibition in vivo at 30 µmol/kg [3, 6] | inhibition in vivo at 30 µmol/kg [4, 5] | inhibition in vivo at 30 µmol/kg [4, 6]
C=C(C(=O)NCc1ccnc(-c2ccc(C(F)(F)F)cc2)c1)N(CC)S(=O)(=O)c1ccc(F)cc1 [Example 1, 2-[ethyl-(4-fluorophenyl)sulfonyl-amino]-N-[[2-[4-(trifluoromethyl)phenyl]-4-pyridyl]methyl]prop-2-enamide] | 100% | 15 nM | 14 nM | 80% | 80% | 97% | 97%
C=C(C(=O)NCc1cc(-c2ccc(C(F)(F)F)cc2)nc(N2CCCC2)c1)N(CC)S(=O)(=O)c1ccc(Cl)cc1 [Example 14, 2-[(4-chlorophenyl)sulfonyl-ethyl-amino]-N-[[2-pyrrolidin-1-yl-6-[4-(trifluoromethyl)phenyl]-4-pyridyl]methyl]prop-2-enamide] | 100% | 40 nM | 60 nM | 75% | 75% | – | –
